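Cells were grown in 96-well plates and exposed to each compound for 48 hours at five concentrations; endpoints were interpolated linearly between bracketing concentrations, or set to the highest concentration if not reached. The concentration for full growth arrest is given as TGI.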
Tests used:
Experiment in all cases: NCI tumour cell line growth inhibition, 48 h
[1] = test system: COLO 205 colon
[2] = test system: OVCAR-3 ovarian
[3] = test system: T-47D breast
[4] = test system: SK-MEL-2 melanoma
[5] = test system: SK-MEL-5 melanoma
[6] = test system: SF-295 CNS
[7] = test system: 786-0 renal
[8] = test system: HT29 colon
[9] = test system: MDA-MB-435
[10] = test system: HCT-116 colon
[11] = test system: A549 NSCLC
[12] = test system: LOX IMVI melanoma
[13] = test system: DU-145 prostate
[14] = test system: OVCAR-5 ovarian
[15] = test system: HOP-92 NSCLC
[16] = test system: IGROV1 ovarian
[17] = test system: MDA-MB-231 breast
[18] = test system: OVCAR-4 ovarian
[19] = test system: HS 578T breast
[20] = test system: NCI-H226 lung
[21] = test system: HOP-62 NSCLC
[22] = test system: NCI-H460 lung
[23] = test system: HL-60(TB) leukemia
[24] = test system: KM12 colon
[25] = test system: U251 CNS
[26] = test system: MCF7 breast
[27] = test system: CCRF-CEM leukemia
[28] = test system: PC-3 prostate
[29] = test system: A498 renal
[30] = test system: SW-620 colon
[31] = test system: SK-OV-3 ovarian
[32] = test system: RPMI-8226 leukemia
[33] = test system: ACHN renal
[34] = test system: NCI-H522 lung
[35] = test system: MALME-3M melanoma
[36] = test system: SNB-19 CNS
[37] = test system: MDA-N
[38] = test system: SF-268 CNS
[39] = test system: K-562 leukemia
[40] = test system: EKVX NSCLC
[41] = test system: CAKI-1 renal
[42] = test system: RXF 393 renal
[43] = test system: SK-MEL-28 melanoma
[44] = test system: BT-549 breast
[45] = test system: MOLT-4 leukemia
[46] = test system: SR leukemia
[47] = test system: SN12C renal
[48] = test system: M14 melanoma
[49] = test system: UO-31 renal
[50] = test system: HCT-15 colon
[51] = test system: OVCAR-8 ovarian
[52] = test system: SNB-75 CNS
[53] = test system: TK-10 renal
[54] = test system: NCI-H23 lung
[55] = test system: UACC-257 melanoma
[56] = test system: UACC-62 melanoma
[57] = test system: HCC-2998 colon
[58] = test system: SF-539 CNS
[59] = test system: NCI/ADR-RES ovarian

## CC1OC(OC2C(O[C@H]3CC[C@@]4(C)C(=CC[C@H]5[C@@H]6C[C@@H]7O[C@]8(CC[C@@H](C)CO8)[C@@H](C)[C@@H]7[C@@]6(C)CC[C@@H]54)C3)OC(CO)C(O)C2O)C(O)C(O)C1O (stereo partly drawn)
[1]
  TGI: 6.33 µM
[2]
  TGI: 6.65 µM
[3]
  TGI: 8.66 µM
[4]
  TGI: 6.21 µM
[5]
  TGI: 7.52 µM
[6]
  TGI: 2.44 µM
[7]
  TGI: 2.37 µM
[8]
  TGI: 2.37 µM
[9]
  TGI: 2.8 µM
[10]
  TGI: 3.95 µM
[11]
  TGI: 1.76 µM
[12]
  TGI: 3.49 µM
[13]
  TGI: 2.53 µM
[14]
  TGI: 6.16 µM
[15]
  TGI: 6.17 µM
[16]
  TGI: 6.08 µM
[17]
  TGI: 3.14 µM
[18]
  TGI: 2.47 µM
[19]
  TGI: 3.85 µM
[20]
  TGI: 8.03 µM
[21]
  TGI: 2.67 µM
[22]
  TGI: 2.34 µM
[23]
  TGI: 2.87 µM
[24]
  TGI: 2.19 µM
[25]
  TGI: 1.87 µM
[26]
  TGI: 4.12 µM
[27]
  TGI: 1.21 µM
[28]
  TGI: 1.63 µM
[29]
  TGI: 2.98 µM
[30]
  TGI: 2.31 µM
[31]
  TGI: 6.14 µM
[32]
  TGI: > 25 µM
[33]
  TGI: 3.44 µM
[34]
  TGI: 2.77 µM
[35]
  TGI: 6.65 µM
[36]
  TGI: 2.38 µM
[37]
  TGI: 6.54 µM
[38]
  TGI: 5.46 µM
[39]
  TGI: > 25 µM
[40]
  TGI: 6.47 µM
[41]
  TGI: 3.54 µM
[42]
  TGI: 3.04 µM
[43]
  TGI: > 11.8 µM
[44]
  TGI: 8.31 µM
[45]
  TGI: > 25 µM
[46]
  TGI: 6.71 µM
[47]
  TGI: 3.27 µM
[48]
  TGI: 2.44 µM
[49]
  TGI: 1.98 µM
[50]
  TGI: 5.21 µM
[51]
  TGI: 3.63 µM
[52]
  TGI: 2.62 µM
[53]
  TGI: 3.57 µM
[54]
  TGI: 5.61 µM
[55]
  TGI: 4.9 µM
[56]
  TGI: 2.7 µM
[57]
  TGI: 2.26 µM
[58]
  TGI: 4.53 µM
[59]
  TGI: 4.64 µM

## CCOC(=O)/C=C(\C(=O)OCC)n1cc(C)c(=O)n(Cc2cnnn2COCCOC(C)=O)c1=O
[1]
  TGI: 4.33 µM
[2]
  TGI: 26 µM
[3]
  TGI: 28.9 µM
[4]
  TGI: 41.7 µM
[5]
  TGI: > 51.6 µM
[6]
  TGI: 69.3 µM
[7]
  TGI: 14.9 µM
[8]
  TGI: 21.2 µM
[9]
  TGI: 28.1 µM
[10]
  TGI: 22.2 µM
[11]
  TGI: 47.1 µM
[12]
  TGI: 21 µM
[13]
  TGI: 48 µM
[14]
  TGI: 43.8 µM
[15]
  TGI: 4.27 µM
[16]
  TGI: 21.8 µM
[17]
  TGI: 42.7 µM
[18]
  TGI: 32 µM
[19]
  TGI: 46.8 µM
[20]
  TGI: 35 µM
[21]
  TGI: 55.6 µM
[22]
  TGI: 35.6 µM
[23]
  TGI: 12.7 µM
[24]
  TGI: 31.8 µM
[25]
  TGI: 43.6 µM
[26]
  TGI: 24.5 µM
[27]
  TGI: 5.57 µM
[28]
  TGI: > 59.2 µM
[29]
  TGI: 35.9 µM
[30]
  TGI: 9.92 µM
[31]
  TGI: > 100 µM
[32]
  TGI: 18.5 µM
[33]
  TGI: 7.46 µM
[34]
  TGI: 2.91 µM
[35]
  TGI: 3.42 µM
[36]
  TGI: > 61.8 µM
[37]
  TGI: 44 µM
[38]
  TGI: 38.5 µM
[39]
  TGI: 19.2 µM
[40]
  TGI: 24.6 µM
[41]
  TGI: 8.06 µM
[42]
  TGI: 13.2 µM
[43]
  TGI: 31.5 µM
[44]
  TGI: 16.3 µM
[45]
  TGI: 8.7 µM
[46]
  TGI: > 34.7 µM
[47]
  TGI: 36.2 µM
[48]
  TGI: 57.5 µM
[49]
  TGI: 27.5 µM
[50]
  TGI: 12 µM
[51]
  TGI: 20.6 µM
[52]
  TGI: 39.9 µM
[53]
  TGI: 10.8 µM
[54]
  TGI: 34.2 µM
[55]
  TGI: 26.3 µM
[56]
  TGI: 31.1 µM
[57]
  TGI: 30.7 µM
[58]
  TGI: 6.89 µM
[59]
  TGI: 43.7 µM
